Assay results from patent US8377974B2 (Millennium Pharmaceuticals, Inc., priority 2004, dated 2013).

What follows are compounds tested against T1, human plasma protein factor Xa (Homo sapiens, UniProt P00742) (assay: Factor Xa IC50 determination: cleavage of paranitroanilide substrate S-2765 in 96-well plates). Conditions: fXa 1 nM, S-2765 100 μM, Tris buffered saline pH 7.4, room temperature.
T1 construct: measure proteolytic activity of the enzyme (factor Xa); purchased Haematologic Technologies (Essex Junction, Vt.); host or cells: human plasma
Assay type: biochemical
Procedure, shortened: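 Initial rates of S-2765 (100 μM final) cleavage, read at 405 nm for 2 min, fitted with a four-parameter equation to give IC50. Enzyme: 1 nM human plasma fXa, 5 min room-temperature preincubation with inhibitor (0.01 nM–10 μM) in 20 mM Tris, 150 mM NaCl, 5 mM CaCl2, 0.1% BSA, 5% DMSO, pH 7.4; duplicates.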

T1 sequence (P00742 235-488 limits assumed): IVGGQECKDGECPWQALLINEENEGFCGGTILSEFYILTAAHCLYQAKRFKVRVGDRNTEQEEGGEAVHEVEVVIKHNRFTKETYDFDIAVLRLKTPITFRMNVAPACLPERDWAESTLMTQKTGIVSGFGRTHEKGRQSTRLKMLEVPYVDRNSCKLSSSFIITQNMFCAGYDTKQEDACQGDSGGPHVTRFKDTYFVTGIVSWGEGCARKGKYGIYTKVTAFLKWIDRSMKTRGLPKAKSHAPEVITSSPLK
T1 sequence (P00742 41-179 partner limits assumed): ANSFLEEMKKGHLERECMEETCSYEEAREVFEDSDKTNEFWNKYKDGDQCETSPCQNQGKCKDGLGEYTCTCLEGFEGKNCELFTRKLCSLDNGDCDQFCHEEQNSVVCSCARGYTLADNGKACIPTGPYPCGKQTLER

IC50 [nM]	Compound
≤ 100	CCOc1cc(Nc2ccc(C3=NOC(CNC(=O)c4ccc(Cl)s4)C3)cc2)ccn1 (stereo not drawn) [Example 401, 5-Chloro-N-((3-(4-(2-ethoxypyridin-4-ylamino)phenyl)-4,5-dihydroisoxazol-5-yl)methyl)thiophene-2-carboxamide]
≥ 500	O=C(NCC1CC(c2ccc(Br)cc2)=NO1)c1ccc(Cl)s1 (stereo not drawn) [Example 1, 5-Chloro-thiophene-2-carboxylic acid [3-(4-bromo-phenyl)-4,5-dihydro-isoxazol-5-ylmethyl]-amide]
≤ 100	CN1CCN=C1c1ccc(-c2ccc(F)c(CNC(=O)c3ccc(Cl)s3)c2)cc1 [Example 375, 5-Chloro-N-((5-(4-(1-methyl-4,5-dihydro-1H-imidazol-2-yl)phenyl)-2-fluorophenyl)methyl)thiophene-2-carboxamide]
≤ 100	N=C(c1ccc(C2=NOC(CNC(=O)c3ccc(Cl)s3)C2)cc1)N1CCCC1 (stereo not drawn) [Example 10, 5-Chloro-thiophene-2-carboxylic acid {3-[4-(imino-pyrrolidin-1-yl-methyl)-phenyl]-4,5-dihydro-isoxazol-5-ylmethyl}-amide]
≥ 500	O=C(NCC1CC(c2ccc(Nc3ccccc3)cc2)=NO1)c1ccc(Cl)s1 (stereo not drawn) [Example 222, 5-Chloro-thiophene-2-carboxylic acid [3-(4-phenylamino-phenyl)-4,5-dihydro-isoxazol-5-ylmethyl]-amide]
≥ 500	O=C(NCC1CC(c2cccc(-c3ccc(CN4CCCC4)cc3)c2)=NO1)c1ccc(Cl)s1 (stereo not drawn) [Example 267, 5-Chloro-thiophene-2-carboxylic acid [3-(4′-pyrrolidin-1-ylmethyl-biphenyl-3-yl)-4,5-dihydro-isoxazol-5-ylmethyl]-amide]
≤ 100	CCN(C)C(=N)c1ccc(C2=NOC(CNC(=O)c3ccc(Cl)s3)C2)cc1 (stereo not drawn) [Example 18, 5-Chloro-thiophene-2-carboxylic acid {3-[4-(N-ethyl-N-methyl-carbamimidoyl)-phenyl]-4,5-dihydro-isoxazol-5-ylmethyl}-amide]

Continued, compound first:

Compound	IC50 [nM]
CC1(CNC(=O)c2ccc(Cl)s2)CC(c2ccc(C(=N)N3CCC3)cc2)=NO1 (stereo not drawn) [Example 62, 5-Chloro-thiophene-2-carboxylic acid {3-[4-(azetidin-1-yl-imino-methyl)-phenyl]-5-methyl-4,5-dihydro-isoxazol-5-ylmethyl}-amide]	≤ 100
CC1(CNC(=O)c2ccc(Cl)s2)CC(c2ccc(C(=N)N3CCC(C(N)=O)CC3)cc2)=NO1 (stereo not drawn) [Example 68, 1-{[4-(5-{[(5-Chloro-thiophene-2-carbonyl)-amino]-methyl}-5-methyl-4,5-dihydro-isoxazol-3-yl)-phenyl]-imino-methyl}-piperidine-4-carboxylic acid amide]	100 to 500
N=C(c1ccc(-c2cc(CNC(=O)c3ccc(Cl)s3)on2)c(Oc2ccccc2)c1)N1CCCC1 [Example 132, 5-Chloro-thiophene-2-carboxylic acid {3-[4-(imino-pyrrolidin-1-yl-methyl)-2-phenoxy-phenyl]-isoxazol-5-ylmethyl}-amide]	≤ 100
CN(C)CCN(C)C(=N)c1ccc(-c2nc(CNC(=O)c3ccc(Cl)s3)co2)cc1 [Example 345, N-((2-(4-(N-(2-(Dimethylamino)ethyl)-N-methylcarbamimidoyl)phenyl)oxazol-4-yl)methyl)-5-chlorothiophene-2-carboxamide]	100 to 500
COCCN(C)C(=N)c1ccc(-c2nc(CNC(=O)c3ccc(Cl)s3)co2)cc1 [Example 346, N-((2-(4-(N-(2-Methoxyethyl)-N-methylcarbamimidoyl)phenyl)oxazol-4-yl)methyl)-5-chlorothiophene-2-carboxamide]	100 to 500
